According to ChEMBL document CHEMBL1201862, “PubChem BioAssay data set” (2004):
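Five compound concentrations were applied to cells in 96-well plates for 48 hours; endpoints were derived by simple linear interpolation of the resulting dose-response curve. Abbreviation: GI50, concentration required for 50% inhibition of growth.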 Activity calls are given as the source filed them. No stated cut-off is given here; in the data, active = GI50 up to about 1.1 µM and inactive = higher.

Tests used:
Experiment in all cases: NCI tumour cell line growth inhibition, 48 h
[1] = tested on: NCI-H23
[2] = tested on: RXF 631
[3] = tested on: OVCAR-4
[4] = tested on: NCI-H460
[5] = tested on: SW-620
[6] = tested on: IGROV-1
[7] = tested on: HT-29
[8] = tested on: HOP-62
[9] = tested on: ACHN
[10] = tested on: SK-MEL-28
[11] = tested on: KM-20L2
[12] = tested on: SK-OV-3
[13] = tested on: EKVX
[14] = tested on: OVCAR-3
[15] = tested on: KM12
[16] = tested on: CCRF-CEM
[17] = tested on: MOLT-4
[18] = tested on: HCC 2998
[19] = tested on: UO-31
[20] = tested on: M19-MEL
[21] = tested on: DMS-114
[22] = tested on: HCT-15
[23] = tested on: Malme-3M
[24] = tested on: SNB-75
[25] = tested on: DLD-1
[26] = tested on: OVCAR-8
[27] = tested on: OVCAR-5
[28] = tested on: RXF 393
[29] = tested on: HOP-18
[30] = tested on: 786-0
[31] = tested on: SF-295
[32] = tested on: NCI-H522
[33] = tested on: LXFL 529
[34] = tested on: LOX IMVI
[35] = tested on: TK-10
[36] = tested on: SK-MEL-2
[37] = tested on: COLO 205
[38] = tested on: SN12C
[39] = tested on: SF-268
[40] = tested on: U-251
[41] = tested on: CAKI-1
[42] = tested on: SK-MEL-5
[43] = tested on: SF-539
[44] = tested on: K562
[45] = tested on: UACC-257
[46] = tested on: HOP-92
[47] = tested on: UACC-62
[48] = tested on: DMS-273
[49] = tested on: RPMI-8226
[50] = tested on: A549
[51] = tested on: HL-60
[52] = tested on: M14
[53] = tested on: SNB-19
[54] = tested on: XF498
[55] = tested on: SR
[56] = tested on: SNB-78
[57] = tested on: NCI-H226
[58] = tested on: HCT-116
[59] = tested on: A498

`CCOC(=O)C1C(=S)NC(=O)C1C#N` (centres undefined) was tested, and the GI50 [1] was > 100 µM (inactive), the GI50 [2] was > 100 µM (inactive) and the GI50 [3] was > 100 µM (inactive). For the same molecule, the GI50 [4] was > 100 µM (inactive), the GI50 [5] was > 100 µM (inactive) and the GI50 [6] was > 100 µM (inactive). The GI50 [7] was > 100 µM (inactive), the GI50 [8] was > 100 µM (inactive) and the GI50 [9] was > 100 µM (inactive). The GI50 [10] was > 100 µM (inactive), the GI50 [11] was > 100 µM (inactive) and the GI50 [12] was > 100 µM (inactive). For the same molecule, the GI50 [13] was > 100 µM (inactive), the GI50 [14] was > 100 µM (inactive) and the GI50 [15] was > 100 µM (inactive). The GI50 [16] was > 100 µM (inactive), the GI50 [17] was > 100 µM (inactive) and the GI50 [18] was > 100 µM (inactive). The GI50 [19] was > 100 µM (inactive), the GI50 [20] was > 100 µM (inactive) and the GI50 [21] was > 100 µM (inactive). For the same molecule, the GI50 [22] was greater than 100 µM, the GI50 [23] was > 100 µM (inactive) and the GI50 [24] was > 100 µM (inactive). For the same molecule, the GI50 [25] was > 100 µM (inactive), the GI50 [26] was > 100 µM (inactive) and the GI50 [27] was > 100 µM (inactive). The GI50 [28] was > 100 µM (inactive), the GI50 [29] was > 100 µM (inactive) and the GI50 [30] was > 100 µM (inactive). The GI50 [31] was > 100 µM (inactive), the GI50 [32] was > 100 µM (inactive) and the GI50 [33] was > 100 µM (inactive). The GI50 [34] was > 100 µM (inactive), the GI50 [35] was > 100 µM (inactive) and the GI50 [36] was > 100 µM (inactive). For the same molecule, the GI50 [37] was > 100 µM (inactive), the GI50 [38] was > 100 µM (inactive) and the GI50 [39] was > 100 µM (inactive). The GI50 [40] was > 100 µM (inactive), the GI50 [41] was > 100 µM (inactive) and the GI50 [42] was > 100 µM (inactive). The GI50 [43] was > 100 µM (inactive), the GI50 [44] was > 100 µM (inactive) and the GI50 [45] was > 100 µM (inactive). The GI50 [46] was > 100 µM (inactive), the GI50 [47] was > 100 µM (inactive) and the GI50 [48] was > 100 µM (inactive). For the same molecule, the GI50 [49] was > 100 µM (inactive), the GI50 [50] was > 100 µM (inactive) and the GI50 [51] was > 100 µM (inactive). The GI50 [52] was > 100 µM (inactive) and the GI50 [53] was > 100 µM (inactive).
With `CCOC(=O)NC(=O)c1cn(-c2ccc(CCOC(=O)CCCCCCCCC(=O)OCCc3ccc(-n4cc(C(=O)NC(=O)OCC)c(=O)[nH]c4=O)cc3)cc2)c(=O)[nH]c1=O` the GI50 [1] was > 100 µM (inactive), the GI50 [54] was > 100 µM (inactive) and the GI50 [2] was > 100 µM (inactive). For the same molecule, the GI50 [3] was > 100 µM (inactive), the GI50 [4] was > 100 µM (inactive) and the GI50 [5] was > 100 µM (inactive). The GI50 [6] was 76.4 µM (inactive), the GI50 [7] was > 100 µM (inactive) and the GI50 [8] was > 100 µM (inactive). The GI50 [9] was > 100 µM (inactive), the GI50 [10] was > 100 µM (inactive) and the GI50 [11] was > 100 µM (inactive). The GI50 [55] was > 100 µM (inactive), the GI50 [12] was > 100 µM (inactive) and the GI50 [13] was > 100 µM (inactive). For the same molecule, the GI50 [14] was > 100 µM (inactive), the GI50 [15] was > 100 µM (inactive) and the GI50 [16] was > 100 µM (inactive). For the same molecule, the GI50 [17] was > 100 µM (inactive), the GI50 [18] was > 100 µM (inactive) and the GI50 [19] was > 100 µM (inactive). The GI50 [20] was > 100 µM (inactive), the GI50 [21] was > 100 µM (inactive) and the GI50 [22] was greater than 100 µM. For the same molecule, the GI50 [23] was > 100 µM (inactive), the GI50 [25] was > 100 µM (inactive) and the GI50 [26] was > 100 µM (inactive). For the same molecule, the GI50 [27] was > 100 µM (inactive), the GI50 [28] was > 100 µM (inactive) and the GI50 [29] was > 100 µM (inactive). The GI50 [30] was > 100 µM (inactive), the GI50 [31] was > 100 µM (inactive) and the GI50 [56] was > 100 µM (inactive). The GI50 [33] was > 100 µM (inactive), the GI50 [34] was > 100 µM (inactive) and the GI50 [35] was 42.8 µM (inactive). The GI50 [36] was > 100 µM (inactive), the GI50 [37] was > 100 µM (inactive) and the GI50 [38] was > 100 µM (inactive). The GI50 [39] was > 100 µM (inactive), the GI50 [57] was > 100 µM (inactive) and the GI50 [40] was 49.9 µM (inactive). The GI50 [42] was > 100 µM (inactive), the GI50 [43] was > 100 µM (inactive) and the GI50 [58] was > 100 µM (inactive). For the same molecule, the GI50 [44] was > 100 µM (inactive), the GI50 [45] was > 100 µM (inactive) and the GI50 [46] was 26 µM (inactive). The GI50 [47] was > 100 µM (inactive), the GI50 [49] was > 100 µM (inactive) and the GI50 [50] was > 100 µM (inactive). The GI50 [51] was > 100 µM (inactive), the GI50 [52] was > 100 µM (inactive) and the GI50 [53] was 59 µM (inactive).
In the case of `NNC(=O)CCC(=O)Nc1cc(Cl)c(Cl)cc1Cl`, the GI50 [1] is reported as > 100 µM (inactive), the GI50 [54] is reported as > 100 µM (inactive) and the GI50 [2] is reported as > 100 µM (inactive). The GI50 [3] was 51.5 µM (inactive), the GI50 [4] was > 100 µM (inactive) and the GI50 [5] was > 100 µM (inactive). For the same molecule, the GI50 [6] was > 100 µM (inactive), the GI50 [7] was > 100 µM (inactive) and the GI50 [8] was > 100 µM (inactive). The GI50 [9] was > 100 µM (inactive), the GI50 [10] was > 100 µM (inactive) and the GI50 [11] was > 100 µM (inactive). For the same molecule, the GI50 [55] was 0.607 µM (active), the GI50 [12] was > 100 µM (inactive) and the GI50 [14] was 75.2 µM (inactive). For the same molecule, the GI50 [15] was > 100 µM (inactive), the GI50 [16] was > 100 µM (inactive) and the GI50 [17] was 90.6 µM (inactive). For the same molecule, the GI50 [18] was > 100 µM (inactive), the GI50 [19] was > 100 µM (inactive) and the GI50 [20] was > 100 µM (inactive). The GI50 [21] was > 100 µM (inactive), the GI50 [22] was greater than 100 µM and the GI50 [23] was > 100 µM (inactive). For the same molecule, the GI50 [24] was 95.1 µM (inactive), the GI50 [25] was > 100 µM (inactive) and the GI50 [26] was > 100 µM (inactive). The GI50 [27] was > 100 µM (inactive), the GI50 [28] was > 100 µM (inactive) and the GI50 [30] was > 100 µM (inactive). The GI50 [31] was > 100 µM (inactive), the GI50 [32] was > 100 µM (inactive) and the GI50 [56] was > 100 µM (inactive). The GI50 [33] was > 100 µM (inactive), the GI50 [34] was > 100 µM (inactive) and the GI50 [35] was > 100 µM (inactive). The GI50 [36] was > 100 µM (inactive), the GI50 [37] was > 100 µM (inactive) and the GI50 [38] was > 100 µM (inactive). The GI50 [39] was > 100 µM (inactive), the GI50 [57] was > 100 µM (inactive) and the GI50 [40] was > 100 µM (inactive). The GI50 [41] was > 100 µM (inactive), the GI50 [59] was 38.3 µM (inactive) and the GI50 [42] was > 100 µM (inactive). For the same molecule, the GI50 [43] was > 100 µM (inactive), the GI50 [58] was > 100 µM (inactive) and the GI50 [44] was > 100 µM (inactive). For the same molecule, the GI50 [45] was > 100 µM (inactive), the GI50 [46] was > 100 µM (inactive) and the GI50 [47] was > 100 µM (inactive). The GI50 [48] was > 100 µM (inactive), the GI50 [49] was > 100 µM (inactive) and the GI50 [50] was > 100 µM (inactive). The GI50 [51] was > 100 µM (inactive), the GI50 [52] was > 100 µM (inactive) and the GI50 [53] was > 100 µM (inactive).
